Series [1] relates to 5′-AMP-activated protein kinase (AMPK). Nature of the series: AMPK activation (AMPKα Thr172 phosphorylation immunoassay) in MCF7 cells. It counts as cell-based, human. The conditions noted are these: for AMPK Activation (phosphorylated AMPKα Thr172) / fold induction at 50 µM: MCF7 cells; for AMPK Activation (phosphorylated AMPKα Thr172): 24 hours; for fold induction at 50 µM: 24 h, 50 μM vs. 0 (cells without compound). The protocol:
MCF7 cells derived from human breast cancer cells were used, and an effect of a biguanide derivative on 5′-AMP-activated protein kinase (AMPK) activation was confirmed using an AMPKα immunoassay kit (Invitrogen, catalog No. KHO0651).
The MCF7 cells were put on a 6-well plate and incubated in a DMEM medium containing 10% fetal bovine serum in an incubator to which 5% CO2 was supplied to have a cell count of approximately 5×10^5. 50 μM of derivatives synthesized in the examples were treated to the each culture medium, and the cells were incubated for 24 hours. Subsequently, the cells were lysed by a method presented in the operation manual of the AMPKα immunoassay kit, and 20 μg of cell lysates were yielded through protein assay. A degree of phosphorylation of an AMPKα threonine 172nd residue (Thr172) from the cell lysates were confirmed according to a method presented in the operation manual of the AMPKα immunoassay kit to thereby obtain results.
In addition, an experiment was performed in the same manner as described in Experimental Example 2 using metformin as a control group, and the results of an effect on AMPK activation were compared to the effect on AMPK activation when 1 mM metformin was treated.

Another series has as its system HCT116 cells. Nature of the series: Inhibition of cancer cell proliferation (MTT, GIC50). The format is cell-based. To be noted: Homo sapiens, HCT-116, 48 hours incubation. As to the method: HCT116 cells derived from human colorectal cancer were used, and an effect of a biguanide derivative on the inhibition of cancer cell proliferation was confirmed by measuring a concentration value (cell growth inhibition concentration, GIC50) at which 50% of the cell growth was inhibited using a 3-(4,5-dimethylthiazol-2-yl)-2,5-diphenytetrazolium bromide (MTT) reagent.
First, HCT116 cells were put on a 96-well plate and cultured in a DMEM medium containing 10% bovine serum for 24 hours to each have cell count of approximately 5000. Subsequently, to obtain the GIC50 value of each compound, 100 μM (or 200 μM), 25 μM, 6.25 μM, 1.56 μM or 0.39 μM of the compound was treated to each culture medium and then incubated for 48 hours. To confirm living cells after treatment with the compound, MTT was added to each culture medium and further incubated for 3 hours. Generated formazane crystal was dissolved using dimethyl sulfoxide (DMSO) and absorbance of the solution was measured at 560 nm. After the 48-hour incubation, a ratio of a cell count cultured on a well plate not treated with the compound to a cell count on a well plate treated with compounds synthesized in the examples was indicated as cell viability (%) according to each administered concentration. A cell viability curve was plotted using the cell viability (%), and the calculated concentration value (GIC50) of the compound, at which 50% of the growth was inhibited was, to confirm an effect on the inhibition of cancer cell proliferation.

Structures can show the parent of a compound that is named as a salt.

Consider `CCCCCCNC(=N)NC(=N)NCCC.Cl` [Example 1, N1-hexyl-N5-propyl Biguanide Hydrochloride], for which the “AMPK Activation (phosphorylated AMPKα Thr172)” value (shortened to “AMPK Activation”) in series [1] (50 μM compound) is 35.6. In addition, in series [1] (Homo sapiens), the fold induction at 50 µM was found to be 6.7. In addition, the half-maximal inhibitory concentration (IC50) (as a rule, the concentration at which inhibition is half-maximal) in the series on HCT116 cells stood at 23.8 µM.

With `CCCCCCNC(=N)NC(=N)NCC1CCCCC1.Cl` [Example 3, N1-hexyl-N5-cyclohexylmethyl Biguanide Hydrochloride], in series [1] (50 μM compound), the “AMPK Activation” value came out at 13.1. The fold induction at 50 µM in series [1] (Homo sapiens) was found to be 1.9. In addition, in the series with HCT116 cells, the half-inhibitory concentration (IC50) was above 100 µM.

`CCCCCCNC(=N)NC(=N)NCc1ccccc1.Cl` [Example 4, N1-hexyl-N5-benzyl Biguanide Hydrochloride]: the “AMPK Activation” value in series [1] (50 μM compound) was 15.5. Besides, the fold induction at 50 µM in series [1] (Homo sapiens) turned out to be 6.2. The IC50 in the series with HCT116 cells amounted to 8.4 µM.

Turning to `Cl.N=C(NC(=N)Nc1ccc(Cl)cc1)Nc1ccc(Cl)cc1` [Example 5, N1,N5-bis(4-chlorophenyl) Biguanide Hydrochloride], the melting point – broadly, the temperature of the solid-liquid transition – lay in the range of 263 to 264 °C. The compound further had a concentration for half-maximal inhibition (IC50) in the series on HCT116 cells of 3.2 µM.

In turn, `Cl.N=C(NC(=N)Nc1cccc(Cl)c1)Nc1cccc(Cl)c1` [Example 6, N1,N5-bis(3-chlorophenyl) Biguanide Hydrochloride] gave a melting point of 129 to 131 °C. Moreover, in series [1] (50 μM compound), the “AMPK Activation” value is given as 4.6. For the same compound, in series [1] (Homo sapiens), the fold induction at 50 µM was 0.7. The compound also showed an IC50 in the series on HCT116 cells above 100 µM.

Consider `COc1ccc(NC(=N)NC(=N)Nc2ccc(Cl)cc2)cc1` [Example 7, N1-(4-chloro)phenyl-N5-(4-methoxy)phenyl Biguanide Hydrochloride], for which the IC50 in the series on HCT116 cells was found to be 18.3 µM.

In turn, `COc1ccc(NC(=N)NC(=N)Nc2ccc(OC)c(Cl)c2)cc1Cl.Cl` [Example 8, N1,N5-bis(3-chloro-4-methoxyphenyl) Biguanide Hydrochloride] yielded a melting point of 203 to 204 °C. In addition, half-maximal inhibition with HCT116 cells (IC50) required 17 µM.

Consider `Cl.N=C(NC(=N)Nc1ccc(Cl)c(Cl)c1)Nc1ccc(Cl)c(Cl)c1` [Example 9, N1,N5-bis(3,4-dichlorophenyl) Biguanide Hydrochloride], for which the melting point was 255 to 257 °C. The IC50 in the series with HCT116 cells amounted to 5.9 µM.

In turn, `Cl.N=C(NC(=N)Nc1cc(Cl)cc(Cl)c1)Nc1cc(Cl)cc(Cl)c1` [Example 10, N1,N5-bis(3,5-dichlorophenyl) Biguanide Hydrochloride] gave a melting point of 250 to 251 °C. This compound also returned an IC50 in the series on HCT116 cells of 6.3 µM.

Take `Cl.N=C(NC(=N)Nc1ccc(Br)cc1)Nc1ccc(Br)cc1` [Example 11, N1,N5-bis(4-bromophenyl) Biguanide Hydrochloride]: the melting point was 242 to 243 °C. Also, in the series on HCT116 cells, 3.1 µM corresponded to half-maximal inhibition (IC50).

`Cl.N=C(NCc1ccccc1)NC(=N)NCc1cccnc1` [Example 12, N1-benzyl-N5-(pyridine-3-yl)methyl Biguanide Hydrochloride]: the melting point lay in the range of 138 to 140 °C. The “AMPK Activation” value in series [1] (50 μM compound) worked out at 7.8. The fold induction at 50 µM in series [1] (Homo sapiens) is 1.5. The same compound showed an IC50 in the series with HCT116 cells above 200 µM.

With `CCCNC(=N)NC(=N)NCCc1ccccc1.Cl` [Example 13, N1-(phenethyl)-N5-propyl Biguanide Hydrochloride], the melting point fell in the range of 126 to 128 °C. Further, the “AMPK Activation” value in series [1] (50 μM compound) is 36.2. Besides, in series [1] (Homo sapiens), the fold induction at 50 µM stood at 6.8. Also, the half-maximal inhibitory concentration (IC50) in the series with HCT116 cells was 47.6 µM.

For the compound `CCCN(CCC)C(=N)NC(=N)Nc1cccc(Cl)c1.Cl` [Example 31, N1,N1-dipropyl-N5-(3-chloro)phenyl Biguanide Hydrochloride], the melting point lay within 201 to 202 °C. Half-maximal inhibition in the series on HCT116 cells (IC50) was put at 7.6 µM.

In turn, `CCCCCCN(CCCCCC)C(=N)NC(=N)Nc1cccc(Cl)c1` [Example 34, N1,N1-dihexyl-N5-(3-chloro)phenyl Biguanide Hydrochloride] showed a 50% inhibitory concentration (IC50) in the series with HCT116 cells of 7.8 µM.

Turning to `CN(C)C(=N)N=C(N)N` [Metformin HCl, reference compound], the “AMPK Activation” value in series [1] (1 mM metformin) was 21.5 (@ 1 mM). Besides, in series [1] (Homo sapiens, MCF7, 24 h, read-out: AMPK Activation fold), the fold induction at 1000 µM amounted to 3.2. Besides, the IC50 with HCT116 cells stood at 2170 µM.

(Values after patent US10376480B2, “Biguanide derivative, a preparation method thereof, and a pharmaceutical composition containing the biguanide derivative as an active ingredient” (Immunomet Therapeutics Inc., priority 2010, dated 2019).)
